US10364256B2 (GlaxoSmithKline Intellectual Property Development Limited, priority 2015, dated 2019)
pEC50, pIC50: −log10 of the molar value. Where two headings read alike, the source gives them in different places.

Assays:
[1] = tested on: NQO1 specific enzyme activity in BEAS-2B cells (marker for NRF2 activation); test: BEAS-2B NQO1 MTT Assay; assay type: cell-based; details: Homo sapiens, compound incubated 48 hours, read-out: EC50 (NQO1 specific enzyme activity induction)
Procedure, shortened: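 NQO1 specific activity induction is derived from the rate of MTT reduction (ΔOD/min, 570 nm, 30 min kinetic read) in crude lysates of BEAS-2B cells exposed to compound for 48 h. A 3-parameter fit gives EC50, reported as pEC50; part of each lysate goes to Cell Titer Glo.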

[2] = target: T1, Keap1 Kelch domain (321-609) / TAMRA-labeled 16mer NRF2 peptide (ETGE motif) (Homo sapiens, UniProt Q14145); test: NRF2-Keap1 FP Assay (Keap1 Kelch fluorescence polarization); assay type: binding; details: 20 nM Keap1 (321-609), 8 nM Tamra labeled peptide
T1 construct: the Kelch domain (321-609) of Keap1 is used
Procedure, shortened: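 Compound dilutions (3-fold) were incubated 1 hr at room temperature with 20 nM Keap1 Kelch (321-609) and 8 nM TAMRA-labeled ETGE 16mer peptide. Buffer was 50 mM Tris pH 8.0, 100 mM NaCl, 5 mM MgCl2, 1 mM DTT, 2 mM CHAPS, 0.005% BSA. Fluorescence polarization (mP) was normalized to controls and fitted with a four-parameter equation to give pIC50.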

[3] = target: T2, full length Keap1 protein / full length NRF2 protein (Homo sapiens, UniProt Q14145); test: NRF2-Keap1 TR-FRET Assay; assay type: binding; details: 25 nM Keap1-FlagHis and 50 nM biotin-NRF2 added
T2 construct: full length NRF2 protein and full length Keap1 protein (Keap1 exists a dimer) are used; His
Excerpt: In the NRF2-Keap1 TR-FRET (time-resolved fluorescence resonance energy transfer) assay, full length NRF2 protein and full length Keap1 protein (Keap1 exists a dimer) are used. The assay detects the ability of compound to displace the binding of FlagHis-tagged Keap1 with biotinylated, Avi-tagged NRF2 protein. Biotin-NRF2 binds to streptavidin-europium (a component of the detection mix) and Keap1-FlagHis is recognized by anti-Flag APC (allophycocyanin) antibody (also a component of the detection mix). If binding occurs between the two proteins, there will be an energy transfer from the Eu+3 (donor) at 615 nm to the APC (acceptor) at 665 nm. A potential Keap1 inhibitor will cause a reduction in the TR-FRET signal by interfering with the binding of Keap1 to NRF2.
One hundred nanoliters of 100× compound dose response curves (serial 3-fold dilutions) in DMSO are stamped using an Echo liquid handling system (Labcyte) into 384-well, low volume, black assay plates (Greiner, #784076), with DMSO in columns 6 and 18. The top concentration of compound is located in columns 1 and 13. All reagents are diluted in assay buffer (50 mM Tris, pH 8.0, 5 mM MgCl2, 100 mM NaCl, 0.005% BSA, 1 mM DTT, and 2 mM CHAPS). The BSA, DTT, and CHAPS are added to the assay buffer on the day of assay. Using a Multidrop Combi (Thermo Electron Corporation) equipped with a metal tip dispenser, 5 ul of 25 nM Keap1-FlagHis protein is added to all wells of the compound plate, with the exception of the wells in column 18. Wells in column 18 receive 5 ul of assay buffer instead. Plates are centrifuged at 500 rpm for 1 minute, covered with a plate lid, and incubated at 37° C. for 2.25 hours. Plates are then removed from the incubator and allowed to cool to RT for 15 minutes. Five microliters of 50 nM biotin-NRF2 protein is then added to all wells of the plates and the plates are spun at 500 rpm for 1 minute, followed by incubating at 4° C. for 1.25 hours. The plates are then allowed to warm to RT for 15 minutes, followed by the addition of 10 ul of detection mix (1 nM Streptavidin Eu+ W1024 and 5 ug/ml mouse anti-DYKDDDDK IgG conjugated to SureLight APC antibody; both from Columbia Biosciences) to all wells. Plates are spun at 500 rpm for 1 minute, incubated for 1 hour at RT, and read on an Envision plate reader using a 320 nm excitation filter and 615 nm and 665 nm emission filters. Compound response (% inhibition) and potency (pIC50) are calculated based on the ratio of the two emissions (665 nm/615 nm) and then the transformed data is normalized against controls in the assay (control 1=1% DMSO in the presence of NRF2 and Keap1 protein and control 2=1% DMSO in the absence of protein). Data analysis is handled using the software package Abase XE (Surrey, United Kingdom). The % inhibition values are calculated from the ratio (transformed) data by the equation: 100−(100*(compound response−average control 2)/(average control 1−average control2)). For calculation of pIC50s, Abase XE uses a four parameter equation. pIC50 is the negative log of the IC50.

T2 sequence (Q14145 whole entry): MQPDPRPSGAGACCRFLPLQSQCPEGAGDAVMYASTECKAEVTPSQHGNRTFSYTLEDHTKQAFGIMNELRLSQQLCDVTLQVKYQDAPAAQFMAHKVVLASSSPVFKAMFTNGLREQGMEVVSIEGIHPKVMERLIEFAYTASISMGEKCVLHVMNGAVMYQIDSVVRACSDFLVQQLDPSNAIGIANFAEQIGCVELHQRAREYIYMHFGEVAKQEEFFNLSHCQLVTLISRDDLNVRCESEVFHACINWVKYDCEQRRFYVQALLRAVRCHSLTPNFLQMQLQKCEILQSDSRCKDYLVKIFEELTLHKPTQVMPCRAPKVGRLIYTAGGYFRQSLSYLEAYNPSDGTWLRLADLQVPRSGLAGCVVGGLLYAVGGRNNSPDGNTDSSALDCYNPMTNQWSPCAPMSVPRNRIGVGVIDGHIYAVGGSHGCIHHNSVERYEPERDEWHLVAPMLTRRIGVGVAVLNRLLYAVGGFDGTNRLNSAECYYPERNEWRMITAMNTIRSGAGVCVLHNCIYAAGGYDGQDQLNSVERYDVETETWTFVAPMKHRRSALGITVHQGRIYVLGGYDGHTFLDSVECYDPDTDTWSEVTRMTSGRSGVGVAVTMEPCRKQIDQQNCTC
T1 sequence (Q14145 321-609): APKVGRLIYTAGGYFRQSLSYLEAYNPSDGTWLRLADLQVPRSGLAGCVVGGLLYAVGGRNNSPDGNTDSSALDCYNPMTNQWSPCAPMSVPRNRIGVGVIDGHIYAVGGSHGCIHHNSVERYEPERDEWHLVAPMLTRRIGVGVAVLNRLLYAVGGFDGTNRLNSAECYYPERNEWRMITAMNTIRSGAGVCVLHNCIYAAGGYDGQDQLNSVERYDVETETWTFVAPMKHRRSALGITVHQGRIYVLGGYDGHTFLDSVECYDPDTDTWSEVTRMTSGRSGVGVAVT

pIC50 [2]	pIC50 [3]	Compound	pEC50 [1]	pEC50 ([1]; BEAS-2B, 48 h)
6.00 to 7.00	5.00 to 6.00	CCCN(CC1CC1)C(=O)c1cccc(-c2cccc(-n3ncc(C(=O)O)c3C3CC3)c2)c1Cl [Example 15, 1-(3-{2-Chloro-3-[(cyclopropylmethyl)(propyl)carbamoyl]phenyl}phenyl)-5-cyclopropyl-1H-pyrazole-4-carboxylic Acid]	5.00 to 6.00	–
6.00 to 7.00	5.00 to 6.00	CCCN(CC1CC1)C(=O)c1cccc(-c2cccc(-n3ncc(C(=O)O)c3C3CC3)c2)c1C [Example 16, 5-Cyclopropyl-1-(3-{3-[(cyclopropylmethyl)(propyl)carbamoyl]-2-methylphenyl}phenyl)-1H-pyrazole-4-carboxylic Acid]	5.00 to 6.00	–
6.00 to 7.00	5.00 to 6.00	O=C(O)c1cnn(-c2cccc(-c3cccc(C(=O)N4CCCC(C(F)(F)F)C4)c3F)c2)c1C1CC1 (stereo not drawn) [Example 18, 5-Cyclopropyl-1-(3-{2-fluoro-3-[3-(trifluoromethyl)piperidine-1-carbonyl]phenyl}phenyl)-1H-pyrazole-4-carboxylic Acid]	5.00 to 6.00	–
6.00 to 7.00	5.00 to 6.00	O=C(O)c1cnn(-c2cccc(-c3cccc(C(=O)N4CCCCC45CC5)c3F)c2)c1C1CC1 [Example 19, 1-[3-(3-{4-Azaspiro[2.5]octane-4-carbonyl}-2-fluorophenyl)phenyl]-5-cyclopropyl-1H-pyrazole-4-carboxylic Acid]	5.00 to 6.00	–
6.00 to 7.00	5.00 to 6.00	O=C(O)c1cnn(-c2cccc(-c3cccc(C(=O)N4CCCCC4)c3F)c2)c1C1CC1 [Example 20, 5-Cyclopropyl-1-{3-[2-fluoro-3-(piperidine-1-carbonyl)phenyl]phenyl}-1H-pyrazole-4-carboxylic Acid]	5.00 to 6.00	–
7.00 to 8.00	5.00 to 6.00	COCC1CCCCN1C(=O)c1cccc(-c2cccc(-n3ncc(C(=O)O)c3C3CC3)c2)c1F (stereo not drawn) [Example 22, 5-Cyclopropyl-1-(3-{2-fluoro-3-[2-(methoxymethyl)piperidine-1-carbonyl]phenyl}phenyl)-1H-pyrazole-4-carboxylic Acid]	5.00 to 6.00	–
6.00 to 7.00	5.00 to 6.00	O=C(O)c1cnn(-c2cccc(-c3cccc(C(=O)N(CCC(F)(F)F)CC4CC4)c3F)c2)c1C1CC1 [Example 23, 5-Cyclopropyl-1-(3-{3-[(cyclopropylmethyl)(3,3,3-trifluoropropyl)carbamoyl]-2-fluorophenyl}phenyl)-1H-pyrazole-4-carboxylic Acid]	5.00 to 6.00	–
6.00 to 7.00	5.00 to 6.00	CC1CCC(C)N1C(=O)c1cccc(-c2cccc(-n3ncc(C(=O)O)c3C3CC3)c2)c1F (stereo not drawn) [Example 24, 5-Cyclopropyl-1-{3-[3-(2,5-dimethylpyrrolidine-1-carbonyl)-2-fluorophenyl]phenyl}-1H-pyrazole-4-carboxylic Acid]	5.00 to 6.00	–
7.00 to 8.00	6.00 to 7.00	CCCC1CCCN1C(=O)c1cccc(-c2cccc(-n3ncc(C(=O)O)c3C3CC3)c2)c1F (stereo not drawn) [Example 26, 5-Cyclopropyl-1-{3-[2-fluoro-3-(2-propylpyrrolidine-1-carbonyl)phenyl]phenyl}-1H-pyrazole-4-carboxylic Acid]	5.00 to 6.00	–
7.00 to 8.00	6.00 to 7.00	CCCC1COCCN1C(=O)c1cccc(-c2cccc(-n3ncc(C(=O)O)c3C3CC3)c2)c1F (stereo not drawn) [Example 27, 5-Cyclopropyl-1-{3-[2-fluoro-3-(3-propylmorpholine-4-carbonyl)phenyl]phenyl}-1H-pyrazole-4-carboxylic Acid]	5.00 to 6.00	–
6.00 to 7.00	5.00 to 6.00	Cc1ccnn1-c1cccc(-c2cccc(-n3ncc(C(=O)O)c3C3CC3)c2)c1 [Example 36, 5-Cyclopropyl-1-{3-[3-(5-methyl-1H-pyrazol-1-yl)phenyl]phenyl}-1H-pyrazole-4-carboxylic Acid]	–	5.00 to 6.00
6.00 to 7.00	5.00 to 6.00	Cc1ccnn1-c1cccc(-c2cccc(-n3ncc(C(=O)O)c3C3CC3)c2)c1F [Example 39, 5-cyclopropyl-1-{3-[2-fluoro-3-(5-methyl-1H-pyrazol-1-yl)phenyl]phenyl}-1H-pyrazole-4-carboxylic Acid]	5.00 to 6.00	–
7.00 to 8.00	6.00 to 7.00	O=C(O)c1cnn(-c2cccc(-c3cccc(C(=O)N4CCCC5(CCCOC5)C4)c3F)c2)c1C1CC1 (stereo not drawn) [Example 43, 5-Cyclopropyl-1-[3-(2-fluoro-3-{2-oxa-8-azaspiro[5.5]undecane-8-carbonyl}phenyl)phenyl]-1H-pyrazole-4-carboxylic Acid]	5.00 to 6.00	–
7.00 to 8.00	6.00 to 7.00	O=C(O)c1cnn(-c2cccc(-c3cccc(C(=O)N4CCOC5(CCCC5)C4)c3F)c2)c1C1CC1 [Example 44, 5-cyclopropyl-1-[3-(2-fluoro-3-{6-oxa-9-azaspiro[4.5]decane-9-carbonyl}phenyl)phenyl]-1H-pyrazole-4-carboxylic Acid]	5.00 to 6.00	–
5.00 to 6.00	4.00 to 5.00	CC(=O)N1CCC(c2c(C(=O)O)cnn2-c2cccc(-c3cccc(C(=O)N(C)C)c3)c2)CC1 [Example 46]	5.00 to 6.00	–
6.00 to 7.00	5.00 to 6.00	CN(CC1CC1)C(=O)c1cccc(-c2cccc(-n3ncc(C(=O)O)c3C(F)(F)F)c2)c1F [Example 47, 1-(3-{3-[(cyclopropylmethyl)(methyl)carbamoyl]-2-fluorophenyl}phenyl)-5-(trifluoromethyl)-1H-pyrazole-4-carboxylic Acid]	5.00 to 6.00	–
6.00 to 7.00	5.00 to 6.00	CN(CC1CC1)C(=O)c1cccc(-c2cccc(-n3ncc(C(=O)O)c3C3CC3)c2)c1F [Example 48, 5-cyclopropyl-1-(3-{3-[(cyclopropylmethyl)(methyl)carbamoyl]-2-fluorophenyl}phenyl)-1H-pyrazole-4-carboxylic Acid]	5.00 to 6.00	–
6.00 to 7.00	4.00 to 5.00	CN(C)C(=O)c1cccc(-c2cccc(-n3ncc(C(=O)O)c3C3CC(c4ccccc4)C3)c2)c1 (stereo not drawn) [Example 49, 1-{3-[3-(dimethylcarbamoyl)phenyl]phenyl}-5-(3-phenylcyclobutyl)-1H-pyrazole-4-carboxylic Acid]	5.00 to 6.00	–
5.00 to 6.00	< 4.00	O=C(O)c1cnn(-c2cccc(-c3cccc(C4CCCO4)c3)c2)c1C1CC1 (stereo not drawn) [Example 50, 5-Cyclopropyl-1-[3′-(tetrahydro-furan-2-yl)-biphenyl-3-yl]-1H-pyrazole-4-carboxylic Acid]	5.00 to 6.00	–

Compound	pIC50 [2]	pIC50 [3]	pEC50 [1]	pEC50 ([1]; BEAS-2B, 48 h)
O=C(O)c1cnn(-c2cccc(-c3cccc(C(=O)N4C5CCC4COC5)c3F)c2)c1C1CC1 [Example 32, 5-cyclopropyl-1-[3-(2-fluoro-3-{3-oxa-8-azabicyclo[3.2.1]octane-8-carbonyl}phenyl)phenyl]-1H-pyrazole-4-carboxylic Acid]	6.00 to 7.00	5.00 to 6.00	5.00 to 6.00	–
